Measurements reported in patent publication EP4793292A1, “POLYPEPTIDE DERIVATIVE, PHARMACEUTICAL COMPOSITION THEREOF AND USE THEREOF” (Biocells (Beijing) Biotech Co., Ltd., priority 2023, dated 2025).
Starred links: 1 amine or outer side, 2 acyl side, 3 side chain; linkers in the order of their positions; H or OH if unused. Non-standard residues stand in square brackets, D forms with d. Residues, ends and D or L forms follow the SMILES beside them. Groups on a side chain read outwards from the residue. No end group written: not given here. *: point of attachment. C18 diacid = O=C(O)CCCCCCCCCCCCCCCCC(=O)*; γGlu = O=C(O)[C@H](CCC(=O)[*:2])N[*:1]; Palmitoyl = CCCCCCCCCCCCCCCC(=O)*; AEEA = NCCOCCOCC(=O)O

What was measured:
SH-SY5Y cells = assay: Axonal growth of RA-differentiated SH-SY5Y cells on proteoglycan (ACAN) coating; type: cell-based, human; settings: PW polypeptide 2.5 µM, 72 h, proteoglycan (ACAN)-coated plate, FIG. 1
Protocol: Therefore, RA-induced differentiated SH-SY5Y can be used to simulate neuronal axonal growth in vitro and to test the effects of PW polypeptides on axonal growth.
Preparation of culture medium for SH-SY5Y: 1) DMEM/F12 + 10% FBS + 1 × penicillin-streptomycin + 1 mM sodium pyruvate; 2) DMEM/F12 + 1% FBS + 1 × penicillin-streptomycin + 1 mM sodium pyruvate. Preparation of 50 mM retinoic acid stock solution: 15.02 mg of retinoic acid was weighed and dissolved in 1 mL of dimethyl sulfoxide (DMSO), aliquoted, and frozen at -80°C. Proteoglycan (ACAN/CSPG1) is a type of chondroitin sulfate proteoglycan (CSPG). Preparation of 1 mg/mL proteoglycan stock solution: 1 mg of ACAN solid was dissolved in 1 mL of distilled water, aliquoted, and frozen at -80°C. Preparation of PW polypeptide solution for cells (1 mM): the corresponding mass of polypeptide powder was weighed, dissolved in PBS and filtered through a 0.2 µm filter membrane, aliquoted, and frozen at -20°C.
The 1 mg/mL proteoglycan was diluted to 250 µg/mL with distilled water to coat a 24-well cell culture plate: each well was coated with 3 droplets of ACAN, 2 µL per droplet. Using the culture medium containing 10% FBS, SH-SY5Y cells were seeded in the proteoglycan-coated 24-well plate (20,000 cells/well) and incubated (37°C, 5% CO2) for 20 h. The medium was replaced with a culture medium containing 1% FBS, and PW polypeptide (2.5 µM) or an equal volume of PBS solution was added. After incubation for 72 h, the cells were fixed with 4% paraformaldehyde (room temperature, 30 min), and cell morphology was photographed and recorded using a 10× optical microscope. 20-30 cells were randomly selected under each field of view, and axonal length was measured using Image J-SNT.
Data analysis: All measured axonal lengths within each proteoglycan-coated range were averaged to serve as one data point. One-way analysis of variance and Tukey's test were used to compare the differences between groups. P<0.05 was considered as a significant difference.

[1] = Determination of the half-life of polypeptides in rats (plasma LC-MS/MS); type: in vivo; set-up: AUClast (0-120 min): unit not given here; settings: male SD rats, intravenous 4 mg/kg; for 30 min blood drug concentration / level at 0.5 h: 30 min after injection; for half-life / level at 0.5 h: rat, plasma; for level at 0.5 h: read-out: 30 min blood drug concentration
Protocol: Plasma sample collection method: 2 male SD rats (280-300 g) were intravenously injected with PW5, PW6, PW182, and PW337 respectively, the pure peptide dose was 4 mg/kg, and the dosing volume was 2 mL/kg. At 0.5 min, 2 min, 5 min, 10 min, 15 min, 30 min, 60 min, and 120 min after intravenous injection of the drug via the tail vein, blood (400 µL/time) was collected through an indwelling jugular vein catheter into anticoagulant tubes containing EDTA-K2, and 100x protease inhibitor (1:50, v:v; Roche, 11873580001) was added. Whole blood samples were placed on ice and centrifuged (3200 g, 4°C, 10 min) within 1 hour after blood collection. Plasma was taken into a pre-cooled centrifuge tube, protease inhibitor (1:50, v:v) was added again, mixed homogeneously, and stored at -80°C.
Plasma sample processing method: Plasma samples were pipetted into a 96-well plate (50 µL/well), pure methanol (300 µL/well) was added, and mixed by vortexing (1500 rpm, 10 min). Centrifuged (4800 g, 4°C, 10 min), the supernatant was taken into a new 96-well plate (100 µL/well), a 20% aqueous methanol solution containing 0.2% formic acid (100 µL/well) was added, and mixed by vortexing (1500 rpm, 3 min). 10.0 µL was injected for LC-MS/MS analysis to obtain the drug concentration in the samples. Instrument model: (Waters TQ-XS) Chromatographic column: SHIMADZU Shim-Pack Scepter Claris C4-300 (2.1×50 mm, 1.9 µm) Detection results: Table 3. Half-life, blood drug concentration, and AUC data of the conjugates

[2] = system: rats with chronic spinal cord injury; assay: BBB locomotor scoring in rats with chronic spinal cord injury; type: in vivo; settings: 2 mg/kg subcutaneous daily; days 1-14 after surgery (acute and subacute phase), FIG. 4
Protocol: Female SD rats (250-270 g) were randomly grouped after being weighed. After the dorsal T10 segment lamina of the rats was removed, spinal cord contusion was performed on rats in each spinal cord injury (SCI) surgery group, while for rats in the sham operation (sham) group, only the T10 segment lamina was removed without contusion. Rats with a BBB locomotor score > 1 on day 1 after spinal cord injury surgery were excluded, and the remaining rats were randomly grouped and subcutaneously injected daily with: equal volume of physiological saline (vehicle control), PW5 (2 mg/kg), and PW337 (2 mg/kg); rats in the sham operation group were not injected. BBB scoring was performed weekly after spinal cord injury surgery.

[3] = Body weight of rats after spinal cord injury (SCI) surgery; type: in vivo; settings: 1 mg/kg subcutaneous daily, female SD rats, FIG. 2
Protocol: Female SD rats (250-270 g) were randomly grouped after being weighed. After the dorsal T10 segment lamina of the rats was removed, spinal cord contusion was performed on rats in each spinal cord injury (SCI) surgery group, while for rats in the sham operation (sham) group, only the T10 segment lamina was removed without contusion. Rats with a BBB locomotor score > 1 on day 1 after spinal cord injury surgery were excluded, and the remaining rats were randomly grouped and subcutaneously injected daily with: equal volume of physiological saline (vehicle control), PW5 (1 mg/kg), and PW337 (1, 2, 4 mg/kg); rats in the sham operation group were not injected. The body weight of the rats was measured weekly after spinal cord injury surgery, and BBB scoring and open field activity tests were performed.

| Compound | effect of promoting axonal growth compared with the scrambled polypeptide (Scr, negative control) (SH-SY5Y cells) | AUClast (0-120 min) [1] | 30 min blood drug concentration [1] | half-life [1] | level at 0.5 h [1] | BBB scores, differences among SCI, PW5 and PW337 groups [2] | body weight recovery compared with rats in the spinal cord injury (SCI) group [3] | promoting effect on axonal growth compared with PW6 (SH-SY5Y cells) |
| --- | --- | --- | --- | --- | --- | --- | --- | --- |
| GRKKRRQRRRCDMAEHTERLKANDSLKLSQEYESI-NH2 [PW-6, reference compound] | significant effect of promoting axonal growth | 1787 | 0 ng/mL | 2.2 min |  |  |  |  |
| CC[C@H](C)[C@H](NC(=O)[C@H](CO)NC(=O)[C@H](CCC(=O)O)NC(=O)[C@H](Cc1ccc(O)cc1)NC(=O)[C@H](CCC(=O)O)NC(=O)[C@H](CCC(N)=O)NC(=O)[C@H](CO)NC(=O)[C@H](CC(C)C)NC(=O)[C@H](CCCCNC(=O)COCCOCCNC(=O)COCCOCCNC(=O)CC[C@H](NC(=O)CCCCCCCCCCCCCCCCC(=O)O)C(=O)O)NC(=O)[C@H](CC(C)C)NC(=O)[C@H](CO)NC(=O)[C@H](CC(=O)O)NC(=O)[C@H](CC(N)=O)NC(=O)[C@H](C)NC(=O)[C@H](CCCCN)NC(=O)[C@H](CC(C)C)NC(=O)[C@H](CCCNC(=N)N)NC(=O)[C@H](CCC(=O)O)NC(=O)[C@H](CCSC)NC(=O)[C@H](Cc1c[nH]cn1)NC(=O)[C@H](CCC(=O)O)NC(=O)[C@H](C)NC(=O)[C@H](CCSC)NC(=O)[C@H](CC(=O)O)NC(=O)[C@H](CCCNC(=N)N)NC(=O)[C@H](CCCNC(=N)N)NC(=O)[C@H](CCCNC(=N)N)NC(=O)[C@H](CCC(N)=O)NC(=O)[C@H](CCCNC(=N)N)NC(=O)[C@H](CCCNC(=N)N)NC(=O)[C@H](CCCCN)NC(=O)[C@H](CCCCN)NC(=O)[C@H](CCCNC(=N)N)NC(=O)CN)C(N)=O [PW-337] |  | 4157725 |  | 95.6 min | 56.8 µg/mL |  |  |  |
| CC[C@H](C)[C@H](NC(=O)[C@H](CO)NC(=O)[C@H](CCC(=O)O)NC(=O)[C@H](Cc1ccc(O)cc1)NC(=O)[C@H](CCC(=O)O)NC(=O)[C@H](CCC(N)=O)NC(=O)[C@H](CO)NC(=O)[C@H](CC(C)C)NC(=O)[C@H](CCCCNC(=O)COCCOCCNC(=O)COCCOCCNC(=O)CC[C@H](NC(=O)CCCCCCCCCCCCCCCCC(=O)O)C(=O)O)NC(=O)[C@H](CC(C)C)NC(=O)[C@H](CO)NC(=O)[C@H](CC(=O)O)NC(=O)[C@H](CC(N)=O)NC(=O)[C@H](C)NC(=O)[C@H](CCCCN)NC(=O)[C@H](CC(C)C)NC(=O)[C@H](CCCNC(=N)N)NC(=O)[C@H](CCC(=O)O)NC(=O)[C@@H](NC(=O)[C@H](Cc1c[nH]cn1)NC(=O)[C@H](CCC(=O)O)NC(=O)[C@H](C)NC(=O)[C@H](CCSC)NC(=O)[C@H](CC(=O)O)NC(=O)[C@H](CCCNC(=N)N)NC(=O)[C@H](CCCNC(=N)N)NC(=O)[C@H](CCCNC(=N)N)NC(=O)[C@H](CCC(N)=O)NC(=O)[C@H](CCCNC(=N)N)NC(=O)[C@H](CCCNC(=N)N)NC(=O)[C@H](CCCCN)NC(=O)[C@H](CCCCN)NC(=O)[C@H](CCCNC(=N)N)NC(=O)CN)[C@@H](C)O)C(N)=O [PW-182] (H-GRKKRRQRRRDMAEHTERLKANDSLK([AEEA-AEEA-γGlu-C18 diacid])LSQEYESI-NH2) |  | 4927113 |  | 61.6 min | 64.4 µg/mL |  |  |  |
| CC[C@H](C)[C@H](NC(=O)[C@H](CO)NC(=O)[C@H](CCC(=O)O)NC(=O)[C@H](Cc1ccc(O)cc1)NC(=O)[C@H](CCC(=O)O)NC(=O)[C@H](CCC(N)=O)NC(=O)[C@H](CO)NC(=O)[C@H](CC(C)C)NC(=O)[C@H](CCCCN)NC(=O)[C@H](CC(C)C)NC(=O)[C@H](CO)NC(=O)[C@H](CC(=O)O)NC(=O)[C@H](CC(N)=O)NC(=O)[C@H](C)NC(=O)[C@H](CCCCN)NC(=O)[C@H](CC(C)C)NC(=O)[C@H](CCCNC(=N)N)NC(=O)[C@H](CCC(=O)O)NC(=O)[C@H](CCSC)NC(=O)[C@H](Cc1c[nH]cn1)NC(=O)[C@H](CCC(=O)O)NC(=O)[C@H](C)NC(=O)[C@H](CCSC)NC(=O)[C@H](CC(=O)O)NC(=O)[C@H](CS)NC(=O)[C@H](CCCNC(=N)N)NC(=O)[C@H](CCCNC(=N)N)NC(=O)[C@H](CCCNC(=N)N)NC(=O)[C@H](CCC(N)=O)NC(=O)[C@H](CCCNC(=N)N)NC(=O)[C@H](CCCNC(=N)N)NC(=O)[C@H](CCCCN)NC(=O)[C@H](CCCCN)NC(=O)[C@H](CCCNC(=N)N)NC(=O)CN)C(N)=O [PW-5, reference compound] |  | 928 | 0 ng/mL | 4.3 min |  | no significant differences | significantly accelerated on days 27-57 after surgery |  |
| PW-252: polypeptide derivative, SEQ ID NO: 47 (G[dR]KKR[dR]Q[dR]RRCDMAEHTERLK([AEEA-AEEA-γGlu-Palmitoyl])ANDSLKLSQEYESI-NH2; N-terminus assumed; SMILES CCCCCCCCCCCCCCCC(=O)N[C@@H](CCC(=O)NCCOCCOCC(=O)NCCOCCOCC(=O)NCCCC[C@H](NC(=O)[C@H](CC(C)C)NC(=O)[C@H](CCCNC(=N)N)NC(=O)[C@H](CCC(=O)O)NC(=O)[C@@H](NC(=O)[C@H](Cc1c[nH]cn1)NC(=O)[C@H](CCC(=O)O)NC(=O)[C@H](C)NC(=O)[C@H](CCSC)NC(=O)[C@H](CC(=O)O)NC(=O)[C@H](CS)NC(=O)[C@H](CCCNC(=N)N)NC(=O)[C@H](CCCNC(=N)N)NC(=O)[C@@H](CCCNC(=N)N)NC(=O)[C@H](CCC(N)=O)NC(=O)[C@@H](CCCNC(=N)N)NC(=O)[C@H](CCCNC(=N)N)NC(=O)[C@H](CCCCN)NC(=O)[C@H](CCCCN)NC(=O)[C@@H](CCCNC(=N)N)NC(=O)CN)[C@@H](C)O)C(=O)N[C@@H](C)C(=O)N[C@@H](CC(N)=O)C(=O)N[C@@H](CC(=O)O)C(=O)N[C@@H](CO)C(=O)N[C@@H](CC(C)C)C(=O)N[C@@H](CCCCN)C(=O)N[C@@H](CC(C)C)C(=O)N[C@@H](CO)C(=O)N[C@@H](CCC(N)=O)C(=O)N[C@@H](CCC(=O)O)C(=O)N[C@@H](Cc1ccc(O)cc1)C(=O)N[C@@H](CCC(=O)O)C(=O)N[C@@H](CO)C(=O)N[C@H](C(N)=O)[C@@H](C)CC)C(=O)O) | significant effect of promoting axonal growth |  |  |  |  |  |  | no significant difference |
